Here are results for 2 compounds from patent US20160053277A1, “Compositions Having Dicamba Decarboxylase Activity and Methods of Use” (PIONEER HI-BRED INTERNATIONAL, INC., priority 2013, published 2016).

“Also recorded” adds a separate entry of the source.

Data set [1] has as its system Arabidopsis ecotype Columbia (Col-0). The data set can be described thus: Arabidopsis root growth inhibition assay. The following applies: 6 days. As for the experimental part: Phytotoxicity of other major dicamba decarboxylated products was evaluated using Arabidopsis root growth inhibition assay. 4-chloro-3-methoxy phenol was purchased from Biogene Organics, Inc. (catalog number U06-642-79). 2,5-dichloro phenol was purchased from Sigma-Aldrich (catalog number D70007). Briefly, seeds of Arabidopsis ecotype Columbia (Col-0) were surface sterilized with 70% (v/v) ethanol for 5 minutes and 10% (v/v) bleach for 15 minutes. After being washed three times with distilled water, the seeds were germinated on 1× Murashige and Skoog (MS) medium with a pH of 5.7, 3% (w/v) sucrose, and 0.8% (w/v) agar. After incubation for 3.5 days, the seedlings were transferred to 1× MS medium containing B5 vitamin, 3% (w/v) sucrose, 1.2% (w/v) agar, and filter sterilized compounds was added to the media at 60° C. The concentrations of compounds including dicamba were 0 μM, 1.0 μM, and 10 μM. The seedlings were placed vertically, and the temperature maintained at 23° C. to allow root growth along the surface of the agar, with a photoperiod of 16 h of light and 8 h of dark.
After 6 days on media, root growth was evaluated. In wild type Arabidopsis, root growth inhibition is expected from auxin herbicide treatment.

For another data set, the system named is Soybean seeds. The experiment in a line: Soybean germination test on media with dicamba or decarboxylation product. It counts as in vivo. Conditions: FIG. 2, concentration not stated.

For `Oc1cc(Cl)ccc1Cl` [2,5-dichloro phenol], the Arabidopsis root growth result in data set [1] (1 uM in medium) and in data set [1] (10 uM in medium) was “not affected; also recorded: did not have any effect” throughout. As to `COc1cc(Cl)ccc1Cl` [2,5-DCA, 2,5-dichloro anisole], in the data set on Soybean seeds, the soybean germination result was “not affected”.
